From US20050112573A1, “Method of detecting toxic substance” (priority 2001, published 2005)

System: yeast genes (level of expressed mRNA)
Experiment: DNA chip analysis of expressed mRNA of yeast genes after 2 h culture with a toxic chemical substance
Format: cell-based, Saccharomyces cerevisiae S288C
Conditions: for The level of expressed mRNA in the presence of chemical substance/ (ratio to absence of chemical substance): stress protein genes, DNA chip; for The level of expressed mRNA in the presence of chemical substance/ in its absence, gene YPR184W: yeast gene YPR184W
Summary of the method: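 Values are treated-to-control fluorescence ratios from a whole-yeast-genome DNA chip (65° C, over 12 h hybridization) using Cy3/Cy5-labelled cDNA from mRNA. Log-phase S288C cells in YPD at 25° C were exposed 2 h to a toxicant at sublethal, growth-inhibiting concentration.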

CCCCC[C@H](O)CC(=O)CCc1ccc(O)c(OC)c1 [(13), gingerol]
The level of expressed mRNA in the presence of chemical substance/The level of expressed mRNA in the absence of chemical substance (yeast gene YNL006W): 2.3 | The level of expressed mRNA in the presence of chemical substance/The level of expressed mRNA in the absence of chemical substance (yeast gene YNL007C): 2.1 | The level of expressed mRNA in the presence of chemical substance/ (in its absence), gene YNL025C (yeast gene YNL025C, ratio of DNA chip fluorescence intensity to that without chemical substance): 1.3 | The level of expressed mRNA in the presence of chemical substance/ (ratio to absence of chemical substance) (yeast gene YNL064C): 1.1 | The level of expressed mRNA in the presence of chemical substance/ (ratio to absence), gene YNL073W (yeast gene YNL073W, mitochondria-located protein genes, 2 h culture with chemical): 1.2 | The level of expressed mRNA in the presence of chemical substance/The level of expressed mRNA in the absence of chemical substance (yeast gene YNL093W): 2.2 | The level of expressed mRNA in the presence of chemical substance/ (in its absence), gene YNL192W (yeast gene YNL192W, ratio of DNA chip fluorescence intensity to that without chemical substance): 2.7 | The level of expressed mRNA in the presence of chemical substance/The level of expressed mRNA in the absence of chemical substance (yeast gene YNL333W): 2.2 | The level of expressed mRNA in the presence of chemical substance/The level of expressed mRNA in the absence of chemical substance (yeast gene YNR010W): 2.8 | The level of expressed mRNA in the presence of chemical substance/The level of expressed mRNA in the absence of chemical substance (yeast gene YNR069C): 3.4 | The level of expressed mRNA in the presence of chemical substance/ (in its absence), gene YNR072W (yeast gene YNR072W, ratio of DNA chip fluorescence intensity to that without chemical substance): 1.5 | The level of expressed mRNA in the presence of chemical substance/ (ratio to absence of chemical substance) (yeast gene YNR076W): 0.9 | The level of expressed mRNA in the presence of chemical substance/The level of expressed mRNA in the absence of chemical substance (yeast gene YOL013C): 1.8 | The level of expressed mRNA in the presence of chemical substance/ (ratio to absence), gene YOL096C (yeast gene YOL096C, mitochondria-located protein genes, 2 h culture with chemical): 1.4 | The level of expressed mRNA in the presence of chemical substance/ (in its absence), gene YOL096C (yeast gene YOL096C, ratio of DNA chip fluorescence intensity to that without chemical substance): 1.4 | The level of expressed mRNA in the presence of chemical substance/ (in its absence), gene YOL108C (yeast gene YOL108C, ratio of DNA chip fluorescence intensity to that without chemical substance): 1.3 | The level of expressed mRNA in the presence of chemical substance/ (in its absence), gene YOL116W (yeast gene YOL116W, ratio of DNA chip fluorescence intensity to that without chemical substance): 0.8 | The level of expressed mRNA in the presence of chemical substance/ (ratio to absence of chemical substance) (yeast gene YOL161C): 1.2 | The level of expressed mRNA in the presence of chemical substance/The level of expressed mRNA in the absence of chemical substance (yeast gene YOL164W): 3.4 | The level of expressed mRNA in the presence of chemical substance/ (ratio to absence of chemical substance) (yeast gene YOR008C): 0.9 | The level of expressed mRNA in the presence of chemical substance/ (ratio to absence of chemical substance) (yeast gene YOR009W): 0.4 | The level of expressed mRNA in the presence of chemical substance/ (ratio to absence of chemical substance) (yeast gene YOR010C): 0.5 | The level of expressed mRNA in the presence of chemical substance/The level of expressed mRNA in the absence of chemical substance (yeast gene YOR036W): 2.1 | The level of expressed mRNA in the presence of chemical substance/ (in its absence), gene YOR103C (yeast gene YOR103C, ratio of DNA chip fluorescence intensity to that without chemical substance): 0.8 | The level of expressed mRNA in the presence of chemical substance/The level of expressed mRNA in the absence of chemical substance (yeast gene YOR117W): 2.3 | The level of expressed mRNA in the presence of chemical substance/The level of expressed mRNA in the absence of chemical substance (yeast gene YOR124C): 2.1 | The level of expressed mRNA in the presence of chemical substance/The level of expressed mRNA in the absence of chemical substance (yeast gene YOR132W): 2.5 | The level of expressed mRNA in the presence of chemical substance/The level of expressed mRNA in the absence of chemical substance (yeast gene YOR157C): 2.4 | The level of expressed mRNA in the presence of chemical substance/ (in its absence), gene YOR180C (yeast gene YOR180C, ratio of DNA chip fluorescence intensity to that without chemical substance): 0.9 | The level of expressed mRNA in the presence of chemical substance/The level of expressed mRNA in the absence of chemical substance (yeast gene YOR181W): 1.2 | The level of expressed mRNA in the presence of chemical substance/The level of expressed mRNA in the absence of chemical substance (yeast gene YOR185C): 2.2 | The level of expressed mRNA in the presence of chemical substance/The level of expressed mRNA in the absence of chemical substance (yeast gene YOR198C): 1.8 | The level of expressed mRNA in the presence of chemical substance/ (in its absence), gene YOR251C (yeast gene YOR251C, ratio of DNA chip fluorescence intensity to that without chemical substance): 1.0 | The level of expressed mRNA in the presence of chemical substance/The level of expressed mRNA in the absence of chemical substance (yeast gene YOR259C): 1.8 | The level of expressed mRNA in the presence of chemical substance/The level of expressed mRNA in the absence of chemical substance (yeast gene YOR261C): 2.5 | The level of expressed mRNA in the presence of chemical substance/The level of expressed mRNA in the absence of chemical substance (yeast gene YOR288C): 2.4 | The level of expressed mRNA in the presence of chemical substance/ (ratio to absence), gene YOR316C (yeast gene YOR316C, mitochondria-located protein genes, 2 h culture with chemical): 1.6 | The level of expressed mRNA in the presence of chemical substance/ (in its absence), gene YOR348C (yeast gene YOR348C, ratio of DNA chip fluorescence intensity to that without chemical substance): 1.1 | The level of expressed mRNA in the presence of chemical substance/The level of expressed mRNA in the absence of chemical substance (yeast gene YOR355W): 1.1 | The level of expressed mRNA in the presence of chemical substance/ (in its absence), gene YOR363C (yeast gene YOR363C, ratio of DNA chip fluorescence intensity to that without chemical substance): 1.3 | The level of expressed mRNA in the presence of chemical substance/The level of expressed mRNA in the absence of chemical substance (yeast gene YOR383C): 1.2 | The level of expressed mRNA in the presence of chemical substance/ (ratio to absence), gene YPL040C (yeast gene YPL040C, mitochondria-located protein genes, 2 h culture with chemical): 1.0 | The level of expressed mRNA in the presence of chemical substance/ (ratio to absence of chemical substance) (yeast gene YPL059W): 0.7 | The level of expressed mRNA in the presence of chemical substance/The level of expressed mRNA in the absence of chemical substance (yeast gene YPL089C): 1.3 | The level of expressed mRNA in the presence of chemical substance/The level of expressed mRNA in the absence of chemical substance (yeast gene YPL109C): 1.8 | The level of expressed mRNA in the presence of chemical substance/ (ratio to absence), gene YPL134C (yeast gene YPL134C, mitochondria-located protein genes, 2 h culture with chemical): 1.0 | The level of expressed mRNA in the presence of chemical substance/ (ratio to absence of chemical substance) (yeast gene YPL140C): 0.9 | The level of expressed mRNA in the presence of chemical substance/ (in its absence), gene YPL148C (yeast gene YPL148C, ratio of DNA chip fluorescence intensity to that without chemical substance): 0.6 | The level of expressed mRNA in the presence of chemical substance/The level of expressed mRNA in the absence of chemical substance (yeast gene YPL149W): 2.3 | The level of expressed mRNA in the presence of chemical substance/The level of expressed mRNA in the absence of chemical substance (yeast gene YPL154C): 3.1 | The level of expressed mRNA in the presence of chemical substance/ (ratio to absence of chemical substance) (yeast gene YPL194W): 1.4 | The level of expressed mRNA in the presence of chemical substance/ (ratio to absence of chemical substance) (yeast gene YPR005C): 0.7 | The level of expressed mRNA in the presence of chemical substance/The level of expressed mRNA in the absence of chemical substance (yeast gene YPR103W): 2.8 | The level of expressed mRNA in the presence of chemical substance/The level of expressed mRNA in the absence of chemical substance (yeast gene YPR108W): 2.6 | The level of expressed mRNA in the presence of chemical substance/ (in its absence), gene YPR165W (yeast gene YPR165W, ratio of DNA chip fluorescence intensity to that without chemical substance): 1.0 | The level of expressed mRNA in the presence of chemical substance/ in its absence, gene YPR184W (energy system protein genes, 2 h culture with the chemical, ratio to control without chemical): 2.5 | The level of expressed mRNA in the presence of chemical substance/ in its absence, gene YPR184W (ratio of DNA chip fluorescence intensity to that without chemical substance): 2.5
